For test [1], the target named is Receptor tyrosine-protein kinase erbB-2 (Homo sapiens, UniProt P04626). The format is functional.
In test [2] the target is Epidermal growth factor receptor (Homo sapiens, UniProt P00533). It counts as functional.
Test [3] deals with T1, Glucocorticoid receptor (Homo sapiens, UniProt P04150).
T1 sequence (P04150 whole entry): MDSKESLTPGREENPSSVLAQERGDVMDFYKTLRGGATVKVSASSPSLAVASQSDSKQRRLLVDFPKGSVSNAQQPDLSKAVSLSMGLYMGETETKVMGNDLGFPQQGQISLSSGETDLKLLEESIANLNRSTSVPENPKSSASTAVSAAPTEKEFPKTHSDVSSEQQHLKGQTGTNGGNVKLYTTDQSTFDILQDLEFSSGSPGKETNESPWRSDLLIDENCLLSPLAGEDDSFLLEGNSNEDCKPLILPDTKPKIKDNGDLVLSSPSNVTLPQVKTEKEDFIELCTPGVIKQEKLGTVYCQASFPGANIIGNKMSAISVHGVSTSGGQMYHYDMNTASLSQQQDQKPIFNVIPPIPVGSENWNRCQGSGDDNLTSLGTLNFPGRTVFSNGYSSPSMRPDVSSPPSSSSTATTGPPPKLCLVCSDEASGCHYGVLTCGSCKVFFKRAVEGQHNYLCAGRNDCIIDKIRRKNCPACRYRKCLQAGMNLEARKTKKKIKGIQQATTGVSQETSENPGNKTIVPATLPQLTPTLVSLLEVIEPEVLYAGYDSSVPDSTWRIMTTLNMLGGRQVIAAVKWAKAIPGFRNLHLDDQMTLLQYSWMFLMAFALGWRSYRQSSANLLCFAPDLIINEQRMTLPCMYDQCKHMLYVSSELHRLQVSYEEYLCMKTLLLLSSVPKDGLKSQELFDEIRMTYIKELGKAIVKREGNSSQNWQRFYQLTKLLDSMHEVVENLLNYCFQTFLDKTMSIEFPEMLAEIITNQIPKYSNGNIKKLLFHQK
The format is functional.

In test [4] the target is T2, 5-hydroxytryptamine receptor 1A (Homo sapiens, UniProt P08908).
T2 sequence (P08908 whole entry): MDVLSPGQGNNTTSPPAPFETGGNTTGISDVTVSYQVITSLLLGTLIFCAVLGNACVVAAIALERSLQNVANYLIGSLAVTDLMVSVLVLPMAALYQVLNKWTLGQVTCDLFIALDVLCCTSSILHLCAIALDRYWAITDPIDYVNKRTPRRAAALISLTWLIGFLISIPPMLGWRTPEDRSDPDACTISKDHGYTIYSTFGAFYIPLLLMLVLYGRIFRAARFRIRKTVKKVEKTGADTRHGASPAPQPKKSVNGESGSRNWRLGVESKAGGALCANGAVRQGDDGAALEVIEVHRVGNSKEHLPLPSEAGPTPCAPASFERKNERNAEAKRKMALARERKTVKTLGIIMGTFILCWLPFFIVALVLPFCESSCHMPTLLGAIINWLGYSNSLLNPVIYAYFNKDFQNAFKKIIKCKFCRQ

Test [5] concerns the target Beta-2 adrenergic receptor (Homo sapiens, UniProt P07550).
Test [6] concerns the target Voltage-dependent N-type calcium channel subunit alpha-1B (Rattus norvegicus, UniProt Q02294). It counts as functional.
In test [7] the target is T3, Alpha-2A adrenergic receptor (Homo sapiens, UniProt P08913).
T3 sequence (P08913 whole entry): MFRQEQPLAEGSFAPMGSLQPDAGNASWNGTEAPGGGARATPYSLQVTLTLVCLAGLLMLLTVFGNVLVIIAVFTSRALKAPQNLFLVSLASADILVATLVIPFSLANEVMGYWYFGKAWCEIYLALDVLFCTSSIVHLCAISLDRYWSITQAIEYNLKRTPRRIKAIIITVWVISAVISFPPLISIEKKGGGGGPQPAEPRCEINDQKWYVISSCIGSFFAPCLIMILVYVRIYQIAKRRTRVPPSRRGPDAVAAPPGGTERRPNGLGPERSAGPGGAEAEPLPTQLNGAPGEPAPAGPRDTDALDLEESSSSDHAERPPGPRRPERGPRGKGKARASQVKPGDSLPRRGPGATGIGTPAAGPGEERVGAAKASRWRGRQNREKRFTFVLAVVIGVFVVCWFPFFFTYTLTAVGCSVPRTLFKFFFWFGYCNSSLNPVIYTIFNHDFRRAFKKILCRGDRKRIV

Test [8] concerns the target T4, Alpha-1A adrenergic receptor (Homo sapiens, UniProt P35348).
T4 sequence (P35348 whole entry): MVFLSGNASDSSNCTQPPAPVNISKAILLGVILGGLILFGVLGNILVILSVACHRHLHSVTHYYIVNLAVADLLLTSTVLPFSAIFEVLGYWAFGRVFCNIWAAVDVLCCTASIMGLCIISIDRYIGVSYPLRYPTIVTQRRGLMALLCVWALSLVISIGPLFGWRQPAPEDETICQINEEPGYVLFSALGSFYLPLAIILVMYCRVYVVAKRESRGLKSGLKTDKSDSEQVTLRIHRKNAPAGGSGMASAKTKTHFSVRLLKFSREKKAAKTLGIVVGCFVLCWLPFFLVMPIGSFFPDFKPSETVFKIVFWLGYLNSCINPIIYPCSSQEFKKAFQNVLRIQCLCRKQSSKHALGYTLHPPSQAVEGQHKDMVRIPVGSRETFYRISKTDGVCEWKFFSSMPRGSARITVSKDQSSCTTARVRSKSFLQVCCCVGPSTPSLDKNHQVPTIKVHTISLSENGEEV
Note: assay procedure not described here.

Chain of Voltage-dependent N-type calcium channel subunit alpha-1B (Q02294 whole entry): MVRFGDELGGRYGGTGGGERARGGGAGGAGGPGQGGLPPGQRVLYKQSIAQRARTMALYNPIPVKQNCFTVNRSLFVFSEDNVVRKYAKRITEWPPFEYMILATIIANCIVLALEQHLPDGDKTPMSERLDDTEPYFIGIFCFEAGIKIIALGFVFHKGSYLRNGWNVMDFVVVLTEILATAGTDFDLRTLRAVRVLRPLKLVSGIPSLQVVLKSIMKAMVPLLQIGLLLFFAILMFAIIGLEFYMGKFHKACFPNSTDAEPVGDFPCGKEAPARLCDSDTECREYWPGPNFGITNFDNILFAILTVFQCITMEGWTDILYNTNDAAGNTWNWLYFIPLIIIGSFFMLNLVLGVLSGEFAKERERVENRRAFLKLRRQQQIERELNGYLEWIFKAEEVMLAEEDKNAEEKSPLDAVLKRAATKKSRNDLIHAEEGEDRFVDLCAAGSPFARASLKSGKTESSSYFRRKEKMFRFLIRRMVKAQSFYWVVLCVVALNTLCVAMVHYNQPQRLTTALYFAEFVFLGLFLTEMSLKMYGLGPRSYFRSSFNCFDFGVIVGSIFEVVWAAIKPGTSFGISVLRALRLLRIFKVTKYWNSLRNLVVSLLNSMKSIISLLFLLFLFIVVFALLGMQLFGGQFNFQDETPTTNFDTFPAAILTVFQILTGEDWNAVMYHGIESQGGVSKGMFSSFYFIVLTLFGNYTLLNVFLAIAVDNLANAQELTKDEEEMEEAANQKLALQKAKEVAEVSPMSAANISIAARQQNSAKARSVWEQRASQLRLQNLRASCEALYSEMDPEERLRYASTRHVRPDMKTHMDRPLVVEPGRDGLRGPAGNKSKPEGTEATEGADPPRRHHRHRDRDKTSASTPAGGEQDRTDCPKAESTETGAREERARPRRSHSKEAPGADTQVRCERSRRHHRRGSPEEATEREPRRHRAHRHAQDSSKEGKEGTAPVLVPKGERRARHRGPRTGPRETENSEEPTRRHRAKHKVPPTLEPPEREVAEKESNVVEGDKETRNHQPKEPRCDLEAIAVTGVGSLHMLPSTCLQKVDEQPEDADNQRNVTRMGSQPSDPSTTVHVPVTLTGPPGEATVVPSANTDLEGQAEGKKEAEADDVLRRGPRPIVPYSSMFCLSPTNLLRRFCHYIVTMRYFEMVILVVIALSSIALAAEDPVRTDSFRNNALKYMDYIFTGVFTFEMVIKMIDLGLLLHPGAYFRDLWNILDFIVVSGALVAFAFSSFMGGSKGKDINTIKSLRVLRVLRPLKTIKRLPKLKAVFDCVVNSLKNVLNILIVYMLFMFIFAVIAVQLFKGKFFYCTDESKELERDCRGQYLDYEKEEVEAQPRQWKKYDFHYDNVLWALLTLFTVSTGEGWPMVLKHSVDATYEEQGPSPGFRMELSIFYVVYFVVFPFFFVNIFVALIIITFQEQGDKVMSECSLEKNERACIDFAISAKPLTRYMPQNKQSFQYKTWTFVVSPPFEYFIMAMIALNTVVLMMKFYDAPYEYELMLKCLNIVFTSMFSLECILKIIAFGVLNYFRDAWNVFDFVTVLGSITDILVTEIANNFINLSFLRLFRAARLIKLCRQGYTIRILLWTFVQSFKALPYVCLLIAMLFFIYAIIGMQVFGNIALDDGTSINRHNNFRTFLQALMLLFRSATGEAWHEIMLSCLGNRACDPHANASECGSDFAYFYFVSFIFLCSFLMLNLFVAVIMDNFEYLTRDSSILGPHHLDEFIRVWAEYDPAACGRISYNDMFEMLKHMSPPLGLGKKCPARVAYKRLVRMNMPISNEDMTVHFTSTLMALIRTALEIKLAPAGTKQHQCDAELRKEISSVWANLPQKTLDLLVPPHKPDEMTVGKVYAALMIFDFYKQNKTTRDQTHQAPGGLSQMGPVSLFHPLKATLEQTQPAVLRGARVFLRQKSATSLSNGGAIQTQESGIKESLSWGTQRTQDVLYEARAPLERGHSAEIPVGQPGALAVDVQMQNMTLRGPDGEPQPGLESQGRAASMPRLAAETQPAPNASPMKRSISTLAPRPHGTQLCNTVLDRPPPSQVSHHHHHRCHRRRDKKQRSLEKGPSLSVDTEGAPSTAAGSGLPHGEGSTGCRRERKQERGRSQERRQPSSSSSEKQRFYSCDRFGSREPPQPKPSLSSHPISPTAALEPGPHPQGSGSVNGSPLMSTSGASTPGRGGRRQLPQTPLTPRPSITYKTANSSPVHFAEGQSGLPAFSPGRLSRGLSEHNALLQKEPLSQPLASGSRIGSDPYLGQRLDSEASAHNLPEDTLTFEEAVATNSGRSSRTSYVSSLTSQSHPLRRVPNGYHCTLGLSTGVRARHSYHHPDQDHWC
Chain of Epidermal growth factor receptor (P00533 whole entry): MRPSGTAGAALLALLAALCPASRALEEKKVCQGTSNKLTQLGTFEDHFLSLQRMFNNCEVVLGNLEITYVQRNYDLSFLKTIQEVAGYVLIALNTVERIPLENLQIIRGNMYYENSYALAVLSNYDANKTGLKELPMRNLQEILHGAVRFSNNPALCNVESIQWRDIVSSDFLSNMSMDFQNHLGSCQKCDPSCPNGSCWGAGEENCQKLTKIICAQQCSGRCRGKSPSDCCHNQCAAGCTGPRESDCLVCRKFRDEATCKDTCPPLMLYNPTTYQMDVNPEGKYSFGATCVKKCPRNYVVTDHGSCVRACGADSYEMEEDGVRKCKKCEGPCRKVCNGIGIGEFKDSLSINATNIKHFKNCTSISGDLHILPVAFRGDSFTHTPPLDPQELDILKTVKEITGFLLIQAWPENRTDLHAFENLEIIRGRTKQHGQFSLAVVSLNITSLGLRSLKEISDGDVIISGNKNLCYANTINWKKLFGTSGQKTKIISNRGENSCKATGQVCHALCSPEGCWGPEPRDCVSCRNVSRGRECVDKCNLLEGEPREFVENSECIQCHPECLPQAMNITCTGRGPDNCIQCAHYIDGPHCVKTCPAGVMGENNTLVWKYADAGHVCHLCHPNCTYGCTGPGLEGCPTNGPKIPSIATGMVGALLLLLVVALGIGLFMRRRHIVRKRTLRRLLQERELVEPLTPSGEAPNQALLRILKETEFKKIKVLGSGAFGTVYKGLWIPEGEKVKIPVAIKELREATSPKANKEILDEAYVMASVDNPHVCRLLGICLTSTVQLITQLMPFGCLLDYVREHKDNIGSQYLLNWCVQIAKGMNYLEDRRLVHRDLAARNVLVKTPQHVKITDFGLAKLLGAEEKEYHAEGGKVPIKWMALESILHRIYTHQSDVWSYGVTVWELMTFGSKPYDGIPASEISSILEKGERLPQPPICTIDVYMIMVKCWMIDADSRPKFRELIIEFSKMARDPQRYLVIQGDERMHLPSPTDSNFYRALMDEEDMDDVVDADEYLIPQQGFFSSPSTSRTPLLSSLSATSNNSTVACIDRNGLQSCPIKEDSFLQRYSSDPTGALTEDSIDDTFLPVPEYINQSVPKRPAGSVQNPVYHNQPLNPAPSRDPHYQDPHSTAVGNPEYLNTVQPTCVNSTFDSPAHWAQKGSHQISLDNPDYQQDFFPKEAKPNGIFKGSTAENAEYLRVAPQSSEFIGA
Chain of Receptor tyrosine-protein kinase erbB-2 (P04626 whole entry): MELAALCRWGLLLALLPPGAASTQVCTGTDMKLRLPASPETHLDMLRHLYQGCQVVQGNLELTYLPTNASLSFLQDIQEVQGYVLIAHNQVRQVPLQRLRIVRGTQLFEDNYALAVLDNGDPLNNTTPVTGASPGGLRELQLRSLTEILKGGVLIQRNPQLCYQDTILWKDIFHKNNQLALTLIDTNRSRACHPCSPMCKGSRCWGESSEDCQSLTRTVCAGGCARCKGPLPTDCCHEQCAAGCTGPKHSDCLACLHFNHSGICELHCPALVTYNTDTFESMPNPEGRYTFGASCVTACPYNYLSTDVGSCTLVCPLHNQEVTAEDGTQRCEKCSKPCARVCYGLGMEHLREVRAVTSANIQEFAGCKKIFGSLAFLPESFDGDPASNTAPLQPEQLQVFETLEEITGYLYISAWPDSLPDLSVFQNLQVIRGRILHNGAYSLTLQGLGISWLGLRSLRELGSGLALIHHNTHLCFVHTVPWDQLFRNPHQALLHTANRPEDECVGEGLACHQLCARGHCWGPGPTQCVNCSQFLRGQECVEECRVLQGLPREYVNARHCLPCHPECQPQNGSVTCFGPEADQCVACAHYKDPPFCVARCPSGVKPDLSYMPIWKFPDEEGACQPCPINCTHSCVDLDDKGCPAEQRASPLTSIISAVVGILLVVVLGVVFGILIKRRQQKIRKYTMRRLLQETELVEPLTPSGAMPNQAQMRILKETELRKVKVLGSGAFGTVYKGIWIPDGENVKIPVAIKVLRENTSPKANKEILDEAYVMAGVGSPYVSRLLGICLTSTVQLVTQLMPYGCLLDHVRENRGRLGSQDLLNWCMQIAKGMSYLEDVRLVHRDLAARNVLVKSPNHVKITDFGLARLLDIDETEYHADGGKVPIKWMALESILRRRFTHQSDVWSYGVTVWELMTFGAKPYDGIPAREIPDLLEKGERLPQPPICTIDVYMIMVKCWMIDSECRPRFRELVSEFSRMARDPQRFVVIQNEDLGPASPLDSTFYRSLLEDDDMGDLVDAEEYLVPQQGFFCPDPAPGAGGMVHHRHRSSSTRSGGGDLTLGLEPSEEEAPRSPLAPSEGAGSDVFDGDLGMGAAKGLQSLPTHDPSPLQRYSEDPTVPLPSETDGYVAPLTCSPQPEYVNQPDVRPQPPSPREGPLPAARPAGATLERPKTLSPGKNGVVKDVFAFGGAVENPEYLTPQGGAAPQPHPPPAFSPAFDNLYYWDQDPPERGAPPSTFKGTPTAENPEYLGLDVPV

For `C=C(C)[C@@H]1CCC(C)=C[C@H]1c1c(O)cc(CCCCC)cc1O` [CANNABIDIOL], the AC50 in test [1], in test [2] and in test [3] was above 30 µM throughout.
On to `C[C@H]1Oc2cc(cnc2N)-c2c(nn(C)c2C#N)CN(C)C(=O)c2ccc(F)cc21` [LORLATINIB], for which the AC50 in test [1] is above 30 µM; in test [2], 2.9 µM; in test [3], above 30 µM.
Turning to `O=C1NC(=O)C(c2ccccc2)(c2ccccc2)N1` [PHENYTOIN], the half-maximal activity concentration (AC50) in test [1] is above 30 µM; in test [4] it was above 10 µM; in test [5] it was above 10 µM; in test [6], above 10 µM; in test [2] it was above 30 µM; in test [3], above 30 µM.
Take `CC(C)C[C@H](CN)CC(=O)O` [PREGABALIN]: the AC50 in test [1] was above 30 µM; in test [4] it was above 10 µM; in test [5], above 30 µM; in test [6], above 10 µM; in test [2], above 30 µM; in test [3] it was above 30 µM.
As for `CCCN(CCC)CCc1cccc2c1CC(=O)N2` [ROPINIROLE], the AC50 in test [1] was above 30 µM; in test [4] it was 8.15 µM; in test [5] it was above 10 µM; in test [6], above 10 µM; in test [2], above 30 µM; in test [3] it was above 30 µM. Moreover, in test [7], the concentration at half-maximal activity (AC50) stood at 12 µM.
With `CCCN(CCc1cccs1)[C@H]1CCc2c(O)cccc2C1` [ROTIGOTINE], the AC50 in test [1], in test [2] and in test [3] was above 30 µM in each case.
Regarding `CC[C@H]1OC(=O)[C@H](C)[C@@H](O[C@H]2C[C@@](C)(OC)[C@@H](O)[C@H](C)O2)[C@H](C)[C@@H](O[C@@H]2O[C@H](C)C[C@H](N(C)C)[C@H]2O)[C@](C)(O)C[C@@H](C)/C(=N\OCOCCOC)[C@H](C)[C@@H](O)[C@]1(C)O` [ROXITHROMYCIN], the concentration at half-maximal activity (AC50) in test [1], in test [2] and in test [3] was above 30 µM each time.
Turning to `CC(=O)S[C@@H]1CC2=CC(=O)CC[C@]2(C)[C@H]2CC[C@@]3(C)[C@@H](CC[C@@]34CCC(=O)O4)[C@H]12` [SPIRONOLACTONE], the AC50 in test [1] was above 30 µM; in test [4] it was above 10 µM; in test [5], above 10 µM; in test [6], above 10 µM; in test [2], above 30 µM; in test [8], above 10 µM. The AC50 was above 30 µM in test [3] and above 10 µM in test [7].

For the origin of these results see ChEMBL document CHEMBL5291721, “A preclinical secondary pharmacology resource illuminates target-adverse drug reaction associations of marketed drugs” (Nat Commun, 2023).
